The numbers were not newly measured in US12253499B2, “Thin-layer chromatography system and method for assessing analyte concentrations in samples” (UCL BUSINESS LTD, priority 2017, dated 2025), which cites them from elsewhere.

The conditions of data set [1]: inter-individual variability.
The conditions of data set [2]: for Therapeutic window / Therapeutic window (μg/mL): Leading candidate drugs for TDM.
The next data set concerns the target T1, topoisomerase I (Homo sapiens, UniProt P11387).
T1 sequence (P11387 1-765): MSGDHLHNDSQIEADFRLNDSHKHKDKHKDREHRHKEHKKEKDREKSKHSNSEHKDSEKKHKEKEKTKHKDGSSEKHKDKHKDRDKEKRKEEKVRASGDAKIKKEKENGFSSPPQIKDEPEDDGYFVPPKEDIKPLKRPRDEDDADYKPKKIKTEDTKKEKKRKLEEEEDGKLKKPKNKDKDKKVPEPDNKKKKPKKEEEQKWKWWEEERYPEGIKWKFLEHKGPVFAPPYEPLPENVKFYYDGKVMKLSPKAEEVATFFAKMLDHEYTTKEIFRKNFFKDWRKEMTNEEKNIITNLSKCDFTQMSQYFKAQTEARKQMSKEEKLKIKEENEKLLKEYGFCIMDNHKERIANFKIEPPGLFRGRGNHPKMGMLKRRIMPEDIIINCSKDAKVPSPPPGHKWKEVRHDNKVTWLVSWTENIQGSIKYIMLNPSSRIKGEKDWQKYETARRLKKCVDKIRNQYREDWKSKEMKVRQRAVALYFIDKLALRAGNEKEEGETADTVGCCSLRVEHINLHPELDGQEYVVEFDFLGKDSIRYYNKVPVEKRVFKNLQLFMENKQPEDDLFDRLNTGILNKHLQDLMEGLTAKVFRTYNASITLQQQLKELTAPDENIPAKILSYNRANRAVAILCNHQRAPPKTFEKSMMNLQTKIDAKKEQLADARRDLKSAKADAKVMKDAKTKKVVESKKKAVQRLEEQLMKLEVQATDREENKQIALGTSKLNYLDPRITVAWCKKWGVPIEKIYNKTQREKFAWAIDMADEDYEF
To be noted: relative to Irinotecan.

The conditions of data set [3]: relative to Irinotecan.
[4] abbreviates: Table D, In-depth list of candidate drugs.
Setting [5] is: Table D, In-depth list of candidate drugs, given as daily dose.

Like-named read-outs stand apart in the source and are kept apart here. Bounds are passed on as bounds.

As to `O=c1[nH]cc(F)c(=O)[nH]1` [5-fluoruoracil, 5-fluorouracil], the “Plasma drug concentrations vary” value in data set [1] is recorded as at most 100 fold. In addition, the Window in data set [2] (setting [4]) was 2000 to 3000 µg/mL. Moreover, the “Therapeutic window” value in data set [2] (Table D) is 2000 to 3000 µg/mL.
For `NCC[C@H](O)C(=O)N[C@@H]1C[C@H](N)[C@@H](O[C@H]2O[C@H](CN)[C@@H](O)[C@H](O)[C@H]2O)[C@H](O)[C@H]1O[C@H]1O[C@H](CO)[C@@H](O)[C@H](N)[C@H]1O` [Amikacin], the Window in data set [2] (setting [4]) is 5 to 15 µg/mL.
Take `CCCCc1oc2ccccc2c1C(=O)c1cc(I)c(OCCN(CC)CC)c(I)c1` [Amiodarone]: the Window in data set [2] (setting [4]) is 0.5 to 2 µg/mL. Further, the “Therapeutic window (μg/mL)” value in data set [2] (Table D) is on record as 0.5-2^ μg/mL.
`CS(=O)(=O)OCCCCOS(C)(=O)=O` [Busulfan]: in data set [2] (setting [4]), the Window was 0.9 to 1 µg/mL.
For the compound `NC(=O)N1c2ccccc2C=Cc2ccccc21` [Carbamazepine], the Window in data set [2] (setting [4]) is 5 to 10 µg/mL.
Regarding `O=C(O)c1cn(C2CC2)c2cc(N3CCNCC3)c(F)cc2c1=O` [Ciprofloxacin], the Window in data set [2] (setting [4]) was 0.1 to 8.3 µg/mL. In addition, the “Therapeutic window” value in data set [2] (Table D) is 0.1 to 8.3 µg/mL.
Regarding `CN1C(=O)CC(=O)N(c2ccccc2)c2cc(Cl)ccc21` [Clobazam], the Window entry in data set [2] (setting [4]) is given as “Varies, 0.2-5 ug/mL”.
Take `O=C1CN=C(c2ccccc2Cl)c2cc([N+](=O)[O-])ccc2N1` [Clonazepam]: the Window in data set [2] (setting [4]) was 20 to 80 µg/mL.
`CC(C)N(CCC(C(N)=O)(c1ccccc1)c1ccccn1)C(C)C` (stereo not drawn) [Disopyramide]: in data set [2] (setting [4]), the Window was 2 to 4 µg/mL.
In the case of `COc1cccc2c1C(=O)c1c(O)c3c(c(O)c1C2=O)C[C@@](O)(C(=O)CO)C[C@@H]3O[C@H]1C[C@H](N)[C@H](O)[C@H](C)O1` [Doxorubicin], the “Therapeutic window” value in data set [2] (Table D) was 10 to 58 µg/mL.
On to `CCC1(C)CC(=O)NC1=O` (stereo not drawn) [Ethosuximide], for which the Window in data set [2] (setting [4]) was 40 to 100 µg/mL.
On to `COc1cc([C@@H]2c3cc4c(cc3[C@@H](O[C@@H]3O[C@@H]5CO[C@@H](C)O[C@H]5[C@H](O)[C@H]3O)[C@H]3COC(=O)[C@H]23)OCO4)cc(OC)c1O` [Etopisode], for which, in data set [2] (Table D), the “Therapeutic window” value was 1 to 10 µg/mL.
`NC(=O)OCC(COC(N)=O)c1ccccc1` [Felbamate]: the Window in data set [2] (setting [4]) is 50 to 110 µg/mL.
In the case of `NCC1(CC(=O)O)CCCCC1` [Gabapentin], the Window in data set [2] (setting [4]) was 2 to 20 µg/mL.
Consider `CCC(C)n1ncn(-c2ccc(N3CCN(c4ccc(OCC5COC(Cn6cncn6)(c6ccc(Cl)cc6Cl)O5)cc4)CC3)cc2)c1=O` (stereo not drawn) [Itraconazole], for which, in data set [2] (setting [4]), the Window was 0.5 to 17 µg/mL. Moreover, the “Therapeutic window” value in data set [2] (Table D) was 0.5 to 17 µg/mL.
In the case of `Nc1nnc(-c2cccc(Cl)c2Cl)c(N)n1` [Lamotrigine], in data set [2] (setting [4]), the Window is 2.5 to 15 µg/mL.
With `CC[C@@H](C(N)=O)N1CCCC1=O` [Levetiracetam], the Window was 10 to 40 µg/mL in data set [2] (setting [4]) and 20 to 40 µg/mL in data set [2] (Table D, In-depth list of candidate drugs, listed as Leveltiracetam).
In the case of `CCN(CC)CC(=O)Nc1c(C)cccc1C` [Lidocaine], in data set [2] (setting [4]), the Window was 1.5 to 5 µg/mL.
Regarding `CC(=O)NC[C@H]1CN(c2ccc(N3CCOCC3)c(F)c2)C(=O)O1` [Linezolid], the Window in data set [2] (setting [4]) is 1.75 to 7.53 µg/mL. In addition, the “Therapeutic window” value in data set [2] (Table D) was 1.8 to 7.5 µg/mL.
With `[Li]` [Lithium], the Window in data set [2] (setting [4]) is recorded as 0.6-1.2 mEq/L.
As for `Cc1cccc(C)c1OCC(C)N` (stereo not drawn) [Mexiletine], the Window in data set [2] (setting [4]) is 0.5 to 2.5 µg/mL. Besides, in data set [2] (Table D), the “Therapeutic window” value was 0.5 to 2.5 µg/mL.
As for `COc1c(C)c2c(c(O)c1C/C=C(\C)CCC(=O)O)C(=O)OC2` [Mycophenolic Acid], in data set [2] (setting [4]), the Window was 1 to 4 µg/mL. For the same compound, in data set [2] (Table D), the “Therapeutic window” value was 1 to 4 µg/mL.
Turning to `CCN(CC)CCNC(=O)c1ccc(NC(C)=O)cc1` [NAPA], the Window in data set [2] (setting [4]) was 4 to 8 µg/mL. For the same compound, the “Therapeutic window” value in data set [2] (Table D) was 4 to 8 µg/mL.
As for `O=C1CN=C(c2ccccc2)c2cc([N+](=O)[O-])ccc2N1` [Nitrazepam], the Window in data set [2] (setting [4]) was 0.03 to 0.1 µg/mL.
Consider `C1CCC(C(CC2CCCCN2)C2CCCCC2)CC1` (stereo not drawn) [Perhexeline], for which the Window in data set [2] (setting [4]) was 0.3 to 4 µg/mL.
As to `O=C1NC(=O)C(c2ccccc2)(c2ccccc2)N1` [Phenytoin], the Window in data set [2] (setting [4]) was 10 to 20 µg/mL.
Turning to `CC[C@@H]([C@H](C)O)n1ncn(-c2ccc(N3CCN(c4ccc(OC[C@@H]5CO[C@@](Cn6cncn6)(c6ccc(F)cc6F)C5)cc4)CC3)cc2)c1=O` [Posaconazole], the Window in data set [2] (setting [4]) is about 0.7 µg/mL. Also, in data set [2] (Table D), the “Therapeutic window (μg/mL)” value was “Maintain at 0.7 μg/mL”.
Consider `CCC1(c2ccccc2)C(=O)NCNC1=O` [Primidone], for which the Window in data set [2] (setting [4]) is 5 to 12 µg/mL.
Consider `C=C[C@H]1C[N@@]2CC[C@H]1C[C@@H]2[C@@H](O)c1ccnc2ccc(OC)cc12` [Quinidine], for which the Window in data set [2] (setting [4]) is 2 to 5 µg/mL. In addition, the “Therapeutic window” value in data set [2] (Table D) was 2 to 5 µg/mL.
Regarding `CCc1c2c(nc3ccc(O)cc13)-c1cc3c(c(=O)n1C2)COC(=O)[C@]3(O)CC` [SN-38, 7-ethyl-10-hydroxycampto-thecin], the “more potent at inhibiting topoisomerase I than the parent Irinotecan” value at topoisomerase I is reported as “up to 1,000”. Further, the “concentration of SN-38 lower than that of Irinotecan” value in data set [3] is “over 30 times”.
As for `O=C(O)c1ccccc1O` [Salicylate], the Window in data set [2] (setting [4]) is 15 to 30 µg/mL. In addition, in data set [2] (Table D), the “Therapeutic window” value was 15 to 30 µg/mL.
For `CO[C@H]1C[C@@H]2CC[C@@H](C)[C@@](O)(O2)C(=O)C(=O)N2CCCC[C@H]2C(=O)O[C@H]([C@H](C)C[C@@H]2CC[C@@H](O)[C@H](OC)C2)CC(=O)[C@H](C)/C=C(\C)[C@@H](O)[C@@H](OC)C(=O)[C@H](C)C[C@H](C)/C=C/C=C/C=C/1C` [Sirolimus], in data set [2] (setting [4]), the Window was 0.005 to 0.01 µg/mL.
`C=CC[C@@H]1/C=C(\C)C[C@H](C)C[C@H](OC)[C@H]2O[C@@](O)(C(=O)C(=O)N3CCCC[C@H]3C(=O)O[C@H](/C(C)=C/[C@@H]3CC[C@@H](O)[C@H](OC)C3)[C@H](C)[C@@H](O)CC1=O)[C@H](C)C[C@@H]2OC` [Tacrolimus]: in data set [2] (setting [4]), the Window was 5 to 20 µg/mL.
For `Cn1c(=O)c2[nH]cnc2n(C)c1=O` [Theophylline], the Window in data set [2] (setting [4]) is 5 to 15 µg/mL.
Consider `Cc1ccsc1C(=CCCN1CCC[C@@H](C(=O)O)C1)c1sccc1C` [Tiagibine], for which the Window in data set [2] (setting [4]) is 0.02 to 0.2 µg/mL.
For `NC[C@H]1O[C@H](O[C@H]2[C@H](O)[C@@H](O[C@H]3O[C@H](CO)[C@@H](O)[C@H](N)[C@H]3O)[C@H](N)C[C@@H]2N)[C@H](N)C[C@@H]1O` [Tobramicin], the Window in data set [2] (setting [4]) is 2 to 10 µg/mL.
Regarding `CC1(C)O[C@@H]2[C@@H](CO[C@@]3(COS(N)(=O)=O)OC(C)(C)O[C@@H]23)O1` [Topiramate], in data set [2] (setting [4]), the Window is 2 to 10 µg/mL.
In the case of `CCCC(CCC)C(=O)O` [Valproic acid], the Window in data set [2] (setting [4]) was 50 to 125 µg/mL.
On to `CN[C@H](CC(C)C)C(=O)N[C@H]1C(=O)N[C@@H](CC(N)=O)C(=O)N[C@H]2C(=O)N[C@H]3C(=O)N[C@H](C(=O)N[C@H](C(=O)O)c4cc(O)cc(O)c4-c4cc3ccc4O)[C@H](O)c3ccc(c(Cl)c3)Oc3cc2cc(c3O[C@@H]2O[C@H](CO)[C@@H](O)[C@H](O)[C@H]2O[C@H]2C[C@](C)(N)[C@H](O)[C@H](C)O2)Oc2ccc(cc2Cl)[C@H]1O` [Vancomycin], for which the Window in data set [2] (setting [4]) is 10 to 20 µg/mL.
For the compound `C=CC(N)CCC(=O)O` (stereo not drawn) [Vigabratin], the Window in data set [2] (setting [4]) is 0.8 to 36 µg/mL.
On to `NS(=O)(=O)Cc1noc2ccccc12` [Zonisamide], for which, in data set [2] (setting [4]), the Window is 10 to 40 µg/mL.
For the compound `Cc1nc(Nc2ncc(C(=O)Nc3c(C)cccc3Cl)s2)cc(N2CCN(CCO)CC2)n1` [dasatinib], in data set [2] (setting [4]), the Window was about 0.05 µg/mL.
As for `C#Cc1cccc(Nc2ncnc3cc(OCCOC)c(OCCOC)cc23)c1` [erlotinib], the Window in data set [2] (setting [5]) is 100 to 150 mg/day.
For the compound `CNC(=O)c1cc(Oc2ccc(NC(=O)Nc3ccc(Cl)c(C(F)(F)F)c3)cc2)ccn1` [sorafenib], the Window in data set [2] (setting [5]) is 800 mg/day.
Take Adalimumab: the Window in data set [2] (in vivo) was 3.5 to 7 µg/mL.
Regarding “Certolizumab pegol: antibody for autoimmune diseases”, the Window in data set [2] (in vivo) was 3 to 84 µg/mL.
For “Infliximab: antibody for autoimmune diseases”, the Window in data set [2] (in vivo) was about 3.8 µg/mL.
On to Teicoplanin, for which the Window in data set [2] (setting [4]) was 10 to 60 µg/mL.
With “retuximab: cancer drug listed in Table D; not natively fluorescent, requires label”, the Window result in data set [2] (in vivo) is recorded as “Maintain at 375 mg/m^2”.
